Data taken from patent US9051248B2, “Methods, compounds, and compositions for delivering 1,3-propanedisulfonic acid” (BHI Limited Partnership, priority 2009, dated 2015).

Key:
[1] = tested on: Salmonella typhimurium strains (TA1535, TA1537, TA98, TA100) and Escherichia coli strain WP2 uvrA; assay: Bacterial mutation tests (Ames test); type: cell-based; conditions: 1.58 to 5000 μg/plate, pre-incubation version; for Bacterial mutation test result in presence of S9: with S9 mix; for Bacterial mutation test result in absence of S9: without S9 mix
Experimental: Bacterial mutation tests were performed at Charles River Laboratories to evaluate the mutagenic potential of various prodrugs. Salmonella typhimurium strains (TA1535, TA1537, TA98, TA100) and Escherichia coli strain WP2 uvrA were treated with prodrugs at concentrations ranging from 1.58 to 5000 μg/plate in the presence and absence of a supplemented liver fraction (S9 mix) using the pre-incubation version of the bacterial mutation test. All concentrations of each compound were evaluated in triplicate. Bacteria were incubated with standard positive control agents, and the response of the various bacterial strains to these agents confirmed the sensitivity of the test system and the activity of the S9 mix.

[2] = In vivo study in ferrets (clinical signs after oral gavage); conditions: male ferrets, oral administration, standard dose as printed
Experimental: One group of three male non-naïve ferrets (domestic strain, >16 weeks, >1.2 Kg) were starved for approximately 1.5 h prior to administration of a dosing formulation. Food was given 2 hours post dose. […] The dosing volume was adjusted to 5 mL/kg. Clinical signs were recorded throughout the study period. […] Plasma samples were stored frozen at −80° C. pending transfer to analysis. An aliquot of dosing solution (0.5 mL) was taken prior to dosing and stored frozen at −20° C. pending transfer to analysis. Animals used for multiple studies after a wash out of a minimum twelve day period.

[3] = Water stability (conversion of prodrug to 1,3PDS); type: physicochemical; conditions: deionized water; for Conversion to 1,3PDS (%) 1 h / Conversion to 1,3PDS (%) 2 h: 37° C.; for Conversion to 1,3PDS (%) 0 h / Conversion to 1,3PDS (%) 24 h: room temperature; for Conversion to 1,3PDS (%) 0 h: 200 μg/mL
Experimental: The objective of this test was to determine the stability of the prodrugs in simulated gastric fluid (SGF) and water at 37° C. up to 2 hours and in water at room temperature up to 24 hours.
Simulated gastric fluid and water samples were incubated in a shaking water bath at 37° C. for up to 2 hours. The compound (prodrug) was added at Time-point 0. At each selected time point (refer to table), sample aliquots were withdrawn and analyzed to determine the concentration of 1,3-propanedisulfonic acid (1,3PDS). The concentrations of 1,3PDS were calculated based on their respective peak area. The % appearance of 1,3PDS was determined by the amounts of compound determined at each time point compared to nominal concentration (100%) of 1,3PDS generated by 100% of the prodrug (equivalent concentration).
A fresh stock solution at approximately 2 mg/mL of the compound was prepared. One stability solution at 200 μg/mL in the SGF was prepared (sample referred to as Tube A). A stability solution at 200 μg/mL in deionized water was prepared (sample referred to as Tube B). Immediately after preparation, each 200 μg/mL solution was diluted in triplicates to 20 μg/mL in deionized water and analyzed using LC-MS/MS method (Time-point 0). Thereafter, the incubation of tubes A and B was continued in the shaking water bath at 37° C. for 1 and 2 hours while one aliquot of tube B was kept at room temperature for 24 hours. At each specific time point of incubation, 3 aliquots (triplicate) of 50 μL were removed, diluted in 450 μL of water and analyzed using LC-MS/MS method. In parallel, 3 reference samples of 1,3PDS at 100, 10 and 1 μg/mL were prepared, diluted in triplicate in water and injected at the beginning and at the end of the batch. These samples were considered as reference samples.
(§1) The concentrations of 1,3PDS were calculated based on response of the reference samples and their respective peak area response. The % appearance of 1,3PDS was determined by the amounts of compound determined at each time point compared to expected nominal concentration (100%) of 1,3PDS generated by 100% of the prodrug (equivalent concentration).

[4] = Human whole blood stability; type: in vitro ADME; conditions: fresh human whole blood, 37° C.
Experimental: The objective of this test was to determine the stability of the prodrugs in fresh human whole blood at different time-points (0, 0.5, 1, 4, 24 hours). Blood samples were incubated in a shaking water bath at 37° C. for up to 24 hours. The compound (prodrug) was added at Time-point 0, and sample aliquots were withdrawn and analyzed at each time point to determine the concentration of 1,3PDS. If possible, the loss of compound was determined by the amounts of compound determined at each time point compared to the amount determined at Time-point 0. To eliminate the conversion due to the matrix, a special Time-point 0 was prepared in pre-extracted blood sample.
Approximately 2.5 mL of whole blood was incubated in a gently shaking water bath at 37° C. for 15 minutes. Two (2) mL of the pre-incubated whole blood were aliquoted in an eppendorf tube. A 100 μL aliquot of blood was removed and 100 μL of the compound Stock Solution was added. The solution was mixed by inversion. This sample was referred to as Tube A. The final concentration of the compound in tube A was approximately at 100 μg/mL. Immediately after mixing, 100 μL of Tube A was aliquotted into 3 different eppendorf tubes. These samples were extracted as described in the “Extraction Procedure” Section. These samples were referred to Time-point 0. Thereafter, the incubation of Tube A was continued in the shaking water bath at 37° C. for 0.5, 1, 4 and 24 hours. At each specific time point of incubation, aliquots (triplicate) of 100 μL were removed and extracted as described in the “Extraction Procedure” Section. To avoid potential further degradation of compound and/or possible degradation products, the aliquot extracts were kept on ice until analysis. After extraction, samples were analyzed using LC-MS/MS method.
A volume of 300 μL of cold-ice acetonitrile was added to a 1.5 mL eppendorf tube and kept on ice until utilization. 100 μL of the sample to be extracted was added and the mix was vortexed (acetonitrile and blood). The sample was centrifuged at 16250×g (13200 rpm on IEC centrifuge with eppendorf rotor) for 5 minutes. A volume of 250 μL of the supernatant was transferred to another tube and evaporated to dryness under a nitrogen stream. The residue was reconstituted with the mobile phase. This sample was then analyzed according to 1,3PDS specific methods.
as §1, with “the nominal concentration” for “response”, “calibration standards” for “reference samples”, “ratio. A linear regression using a weight of 1/x^2 is used to derive the concentration of 1,3PDS.” for “response.”, “to” for “to expected”

SMILES | Bacterial mutation test result in presence of S9 [1] | Bacterial mutation test result in absence of S9 [1] | Clinical signs / side effects in ferrets [2] | Conversion to 1,3PDS (%) 1 h [3] | Conversion to 1,3PDS (%) 2 h [3] | Conversion to 1,3PDS (%) 0 h [3] | further results
CCOC(=O)CCC(C)(C)COS(=O)(=O)CCCS(=O)(=O)OCC(C)(C)CCC(=O)OCC [Compound B75] | Negative | Negative | 2 out of 3 animals showed abdomen scratching but recovered after 1 h |  |  |  | 
CCOC(=O)C(C)(C)C(C)OS(=O)(=O)CCCS(=O)(=O)OC(C)C(C)(C)C(=O)OCC (centres unmarked) [Compound B68] | Negative | Negative |  |  |  |  | 
CC(C)(CCOC(=O)c1ccccc1)COS(=O)(=O)CCCS(=O)(=O)OCC(C)(C)CCOC(=O)c1ccccc1 [Compound B23] |  |  |  | 0.0% | 0.0% | 0.0% | Conversion to 1,3PDS (%) 24 h [3]: 0.0%
CC1(COS(=O)(=O)CCCS(=O)(=O)OCC2(C)CCC(=O)O2)CCC(=O)O1 (centres unmarked) [Compound B78] | Negative | Negative |  |  |  |  | 
CC(C)(CNC(=O)[C@H](Cc1ccccc1)NC(=O)OC(C)(C)C)COS(=O)(=O)CCCS(=O)(=O)[O-].[Na+] [A52(K)] |  |  |  | 14.6% | 18.8% | 7.0% | Conversion to 1,3PDS (%) 24 h [3]: 21.3%
CCCC(=O)OCOS(=O)(=O)CCCS(=O)(=O)OCOC(=O)CCC [Compound D3] |  |  | abdominal contracting and/or vomiting |  |  |  | 
CCOC(=O)C(C)(N)COS(=O)(=O)CCCS(=O)(=O)O (centres unmarked) [Compound A61] | Positive | Positive | no clinical signs |  |  |  | 
CCOC(=O)C(C)(C)COS(=O)(=O)CCCS(=O)(=O)OCC(C)(C)C(=O)OCC [Compound B29] | Positive | Negative | no clinical signs |  |  |  | 
O=C(OCOS(=O)(=O)CCCS(=O)(=O)OCOC(=O)C1CCCCC1)C1CCCCC1 [Compound D5] |  |  | abdominal contracting and/or vomiting |  |  |  | 
CCOC(=O)C(OS(=O)(=O)CCCS(=O)(=O)OC(C(=O)OCC)C(C)(C)C)C(C)(C)C (centres unmarked) [Compound B82] |  |  | no clinical signs |  |  |  | 
CC(OC(=O)NCCC(C)(C)COS(=O)(=O)CCCS(=O)(=O)O)OC(=O)C(C)C (centres unmarked) [Compound A13] |  |  |  | 0.0% | 0.0% | 0.0% | Conversion to 1,3PDS (%) 24 h [3]: 0.0%
CC(C)(C)COS(=O)(=O)CCCS(=O)(=O)[O-].[Na+] [A6(Na)] |  |  |  | 1.0% | 1.6% | 0.4% | Conversion to 1,3PDS (%) 24 h [3]: 1.4%
O=S1(=O)CCCS(=O)(=O)O1 [Compound C1] |  |  |  | 57.3% | 63.1% | 50.3% | Conversion to 1,3PDS (% by molar ratio) 0.5 h ([4]; 0.5 h): AULQ; Conversion to 1,3PDS (% by molar ratio) 1 h ([4]; 1 h): AULQ; Conversion to 1,3PDS (% by molar ratio) 4 h ([4]; 4 h): AULQ; Conversion to 1,3PDS (% by molar ratio) 24 h ([4]; 24 h): AULQ; Conversion to 1,3PDS (% by molar ratio) 0 h ([4]; about 100 μg/mL, 0 h): AULQ; Conversion to 1,3PDS (%) 24 h [3]: 61.2%
CCC(=O)OCOS(=O)(=O)CCCS(=O)(=O)OCOC(=O)CC [Compound D7] |  |  | abdominal contracting and/or vomiting |  |  |  | 
CC(C)(C)C(=O)OCOS(=O)(=O)CCCS(=O)(=O)OCOC(=O)C(C)(C)C [Compound D1] |  |  | green face |  |  |  | 
O=S1(=O)CCCS(=O)(=O)OCO1 [Compound C2] |  |  | severe toxicity |  |  |  | 
CC(C)(CNC(=O)[C@@H](N)Cc1ccccc1)COS(=O)(=O)CCCS(=O)(=O)O [Compound A51] | Negative | Negative | no clinical signs | 14% | 18% | 13% | 
CC(C)[C@H](N)C(=O)NCCC(C)(C)COS(=O)(=O)CCCS(=O)(=O)O [Compound A14] |  |  |  | 0.4% | 1.4% | 0.2% | 
CC1(COS(=O)(=O)CCCS(=O)(=O)OCC2(C)CCOC2=O)CCOC1=O (centres unmarked) [Compound B76] | Negative | Negative | no clinical signs |  |  |  | 
CC1(C)COC(=O)C1OS(=O)(=O)CCCS(=O)(=O)OC1C(=O)OCC1(C)C (centres unmarked) [Compound B77] | Negative | Negative | no clinical signs |  |  |  | 
CC(C)(COS(=O)(=O)CCCS(=O)(=O)OCC(C)(C)C(=O)O)C(=O)O [Compound B58] | Positive | Positive | vomiting |  |  |  | 
CC(OC(=O)NCCC(C)(C)COS(=O)(=O)CCCS(=O)(=O)OCC(C)(C)CCNC(=O)OC(C)OC(=O)C(C)C)OC(=O)C(C)C (centres unmarked) [Compound B13] |  |  |  | 0.4% | 0.4% | 0.3% | 
CC(C)[C@H](N)C(=O)NCCC(C)(C)COS(=O)(=O)CCCS(=O)(=O)OCC(C)(C)CCNC(=O)[C@@H](N)C(C)C [Compound B14] |  |  |  | 0.0% | 0.0% | 0.0% | 
CCOC(=O)C(OS(=O)(=O)CCCS(=O)(=O)OC(C(=O)OCC)C(C)C)C(C)C (centres unmarked) [Compound B83] | Negative | Negative | no clinical signs |  |  |  | 
